Experimental data published in patent publication US8815948B2, “High volume and alternative methods of delivering homeopathic remedies” (Dovetail Technologies, Inc., priority 2004, dated 2014).

System: cat with Gran Mal seizures
Experiment: Taurox SB added to food of a cat with Gran Mal seizures
Type: in vivo
Settings: cat Misty, before Taurox SB
Description: The homeopathic remedy may be included in food. For example, Misty, a cat who had been accepted by a rescue shelter, suffered with severe, potentially life-threatening Gran Mal seizures about three times a day and almost every other day. […] Overall, she averaged a few a month while being treated.
The homeopathic remedy may also be included in food. […] This invention applies to all foods from treats treated with the homeopathic on site, to the bulk supplied food while making it, to massive watering systems used to water livestock or irrigate fields. It applies to all forms of life including human, animal and plant.

For Bromide salts, the “benefit on seizures of earlier medication” value was “without significant benefits”.
